This assay concerns the target T1, Human HPK1, catalytic domain (Homo sapiens, UniProt Q92918).
T1 construct: purchased Cama (so in the source)
T1 sequence (Q92918 1-346): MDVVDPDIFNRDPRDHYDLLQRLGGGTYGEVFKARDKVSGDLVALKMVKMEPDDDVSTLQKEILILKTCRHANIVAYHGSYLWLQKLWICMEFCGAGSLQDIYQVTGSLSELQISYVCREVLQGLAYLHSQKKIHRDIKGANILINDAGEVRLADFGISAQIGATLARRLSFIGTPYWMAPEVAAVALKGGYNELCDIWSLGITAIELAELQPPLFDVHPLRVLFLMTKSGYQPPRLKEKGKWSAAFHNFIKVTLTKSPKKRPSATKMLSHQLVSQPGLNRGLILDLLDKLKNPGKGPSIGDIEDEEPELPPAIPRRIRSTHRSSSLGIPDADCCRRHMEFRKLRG
Nature of the assay: HPK1-SLP76 TR-FRET assay. Type of assay: biochemical. The settings on record: HPK1 kinase domain 0.075 nM; full length SLP-76 10 nM; ATP 10 μM; 30 min preincubation; 60 min reaction; room temperature.
Compound `Cc1c(-c2cc3nc(Nc4cnn(C5CCN(C)C5=O)c4)ncc3c(N)c2F)cnc2c1NCCO2` (single isomer, unassigned) [Example 2-19, (S or R)-3-(4-{[5-amino-6-fluoro-7-(8-methyl-2,3-dihydro-1H-pyrido[2,3-b][1,4]oxazin-7-yl)quinazolin-2-yl]amino}-1H-pyrazol-1-yl)-1-methylpyrrolidin-2-one] displayed an IC50 of 0.15 nM.

`Cc1c(-c2cc3nc(Nc4cnn(C5CNC5)c4)ncc3c(N)c2F)cnc2c1NCCO2` [Example 2-5, N~2~-[1-(azetidin-3-yl)-1H-pyrazol-4-yl]-6-fluoro-7-(8-methyl-2,3-dihydro-1H-pyrido[2,3-b][1,4]oxazin-7-yl)quinazoline-2,5-diamine] returned an IC50 of 0.29 nM. The result for `Cc1c(-c2cc3nc(Nc4cnn(CS(C)(=O)=O)c4)ncc3c(N)c2F)cnc2c1NCCO2` [Example 2-42, 6-fluoro-7-(8-methyl-2,3-dihydro-1H-pyrido[2,3-b][1,4]oxazin-7-yl)-N2-(1-((methylsulfonyl)methyl)-1H-pyrazol-4-y)quinazoline-2,5-diamine] reads 0.13 nM. The result for `Cc1c(-c2cc3nc(Nc4cnn(C56CC(C(C)(C)O)(C5)C6)c4)ncc3c(N)c2F)cnc2c1NCCO2` [Example 2-46, 2-[3-(4-{[5-amino-6-fluoro-7-(8-methyl-2,3-dihydro-1H-pyrido[2,3-b][1,4]oxazin-7-yl)quinazolin-2-yl]amino}-1H-pyrazol-1-yl)bicyclo[1.1.1]pentan-1-yl]propan-2-ol] reads 0.051 nM; that for `Cc1cnsc1Nc1ncc2c(N)c(F)c(-c3cnc4c(c3C)NCCO4)cc2n1` [Example 2-37, 6-fluoro-7-(8-methyl-2,3-dihydro-1H-pyrido[2,3-b][1,4]oxazin-7-yl)-N~2~-(4-methyl-1,2-thiazol-5-yl)quinazoline-2,5-diamine], 0.071 nM. The result for `Cc1c(-c2cc3nc(Nc4cc5n(n4)CCN(C(C)C)C(=O)C5)ncc3c(N)c2F)cnc2c1NCCO2` [Example 2-20, 2-{[5-amino-6-fluoro-7-(8-methyl-2,3-dihydro-1H-pyrido[2,3-b][1,4]oxazin-7-yl)quinazolin-2-yl]amino}-6-(propan-2-yl)-7,8-dihydro-4H-pyrazolo[1,5-d][1,4]diazepin-5(6H)-one] reads 0.063 nM; that for `Cc1nn(C)cc1Nc1ncc2c(N)c(F)c(-c3cnc4c(c3C)NCCO4)cc2n1` [Example 2-34, N~2~-(1,3-dimethyl-1H-pyrazol-4-yl)-6-fluoro-7-(8-methyl-2,3-dihydro-1H-pyrido[2,3-b][1,4]oxazin-7-yl)quinazoline-2,5-diamine], 0.058 nM; that for `Cc1c(-c2cc3nc(Nc4cnn(C5(C)CC5)c4Cl)ncc3c(N)c2F)cnc2c1NCCO2` [Example 2-26, N~2~-[5-chloro-1-(1-methylcyclopropyl)-1H-pyrazol-4-yl]-6-fluoro-7-(8-methyl-2,3-dihydro-1H-pyrido[2,3-b][1,4]oxazin-7-yl)quinazoline-2,5-diamine], 0.38 nM.

Turning to `Cc1c(-c2cc3nc(Nc4cnn(C5CCC5)c4)ncc3c(N)c2F)cnc2c1NCCO2` [Example 2-23, N~2~-(1-cyclobutyl-1H-pyrazol-4-yl)-6-fluoro-7-(8-methyl-2,3-dihydro-1H-pyrido[2,3-b][1,4]oxazin-7-yl)quinazoline-2,5-diamine], it took 0.19 nM to reach half-maximal inhibition (IC50). This IC50 lies about 2-fold lower than the previous one. Next, `Cc1c(-c2c(F)c(N)c3cnc(Nc4cnn(C5(C)CC5)c4)nc3c2Cl)cnc2c1NCCO2` [Example 2-43, (+ and −)-8-chloro-6-fluoro-N~2~-[1-(1-methylcyclopropyl)-1H-pyrazol-4-yl]-7-(8-methyl-2,3-dihydro-1H-pyrido[2,3-b][1,4]oxazin-7-yl)quinazoline-2,5-diamine]: 0.14 nM; `Cc1c(-c2cc3nc(Nc4cnn(C5CC5)c4C)ncc3c(N)c2F)cnc2c1NCCO2` [Example 2-45, N~2~-(1-cyclopropyl-5-methyl-1H-pyrazol-4-yl)-6-fluoro-7-(8-methyl-2,3-dihydro-1H-pyrido[2,3-b][1,4]oxazin-7-yl)quinazoline-2,5-diamine]: 0.18 nM; `CNC(=O)Cn1cc(Nc2ncc3c(N)c(F)c(-c4cnc5c(c4C)NCCO5)cc3n2)c(C)n1` [Example 2-40, 2-(4-{[5-amino-6-fluoro-7-(8-methyl-2,3-dihydro-1H-pyrido[2,3-b][1,4]oxazin-7-yl)quinazolin-2-yl]amino}-3-methyl-1H-pyrazol-1-yl)-N-methylacetamide]: 0.27 nM. Next, `CCC(=O)N1CC(n2cc(Nc3ncc4c(N)c(F)c(-c5cnc6c(c5C)NCCO6)cc4n3)cn2)C1` [Example 2-1, 1-[3-(4-{[5-amino-6-fluoro-7-(8-methyl-2,3-dihydro-1H-pyrido[2,3-b][1,4]oxazin-7-yl)quinazolin-2-yl]amino}-1H-pyrazol-1-yl)azetidin-1-yl]propan-1-one]: 0.42 nM; `CCn1cc(Nc2ncc3c(N)c(F)c(-c4cnc5c(c4C)NCCO5)cc3n2)c(C)n1` [Example 2-27, N~2~-(1-ethyl-3-methyl-1H-pyrazol-4-yl)-6-fluoro-7-(8-methyl-2,3-dihydro-1H-pyrido[2,3-b][1,4]oxazin-7-yl)quinazoline-2,5-diamine]: 1 nM. Next, `Cc1c(-c2cc3nc(Nc4cnn(C5CCN(C)CC5)c4)ncc3c(N)c2F)cnc2c1NCCO2` [Example 2-44, 6-fluoro-7-(8-methyl-2,3-dihydro-1H-pyrido[2,3-b][1,4]oxazin-7-yl)-N~2~-[1-(1-methylpiperidin-4-yl)-1H-pyrazol-4-yl]quinazoline-2,5-diamine]: 0.045 nM. As to `CCC(=O)N1CC(n2cc(Nc3ncc4ccc(-c5cnc6c(c5C)NCCO6)cc4n3)cn2)C1` [Example 1-3, 1-[3-(4-{[7-(8-methyl-2,3-dihydro-1H-pyrido[2,3-b][1,4]oxazin-7-yl)quinazolin-2-yl]amino}-1H-pyrazol-1-yl)azetidin-1-yl]propan-1-one], the IC50 was found to be 0.26 nM. This IC50 is about 5.8-fold higher than that of the compound before. Next, `Cc1nn(CC(F)F)cc1Nc1ncc2c(N)c(F)c(-c3cnc4c(c3C)NCCO4)cc2n1` [Example 2-31, N~2~-[1-(2,2-difluoroethyl)-3-methyl-1H-pyrazol-4-yl]-6-fluoro-7-(8-methyl-2,3-dihydro-1H-pyrido[2,3-b][1,4]oxazin-7-yl)quinazoline-2,5-diamine]: 0.2 nM.

Values taken from patent publication US20230406864A1, “7-AZOLE SUBSTITUTED 2-AMINOQUINAZOLINE INHIBITORS OF HPK1” (MERCK SHARP & DOHME LLC, priority 2020, published 2023).
